# From US8067430B1, “Anti-HIV activity of the opioid antagonist naloxone” (University of South Florida, priority 2003, dated 2011)
# Structures can show the parent of a compound that is named as a salt.
# Tests used:
# [1] = system: HIV-1 gp120 (external envelope glycoprotein); experiment: Immunoblot (Western blot) of gp120 in lysates of HIV infected Supt 1 cells; format: cell-based, HIV-1MN
# Experimental: The expression of the essential HIV coat protein gp120 is measured by this technique. Western Blot analysis of gp120 detected with a murine anti-gp120 monoclonal antibody from HIV-1 infected cells treated with naloxone or AZT. HIV-MN infected Supt 1 cells treated will different molar concentrations of naloxone or AZT. Cells were lysed at 3 days after infection of the cells with cell free HIV-1MN and 100 μg of the lysate was loaded onto SDS-PAGE, transferred onto a Hybond ECL membrane and detected with an anti-gp120 monoclonal antibody. VC=viral control (infected cells with no drug treatment).
# 200TCID-50 per milliliter (tissue culture infectious dose) of HIV-MN cell free virus was used to infect 500,000/milliliter of a human T cell line (called SupTI) in the presence (at a range of concentrations) or absence (control) of naloxone-HC1/or AZT. The TCID-50 is an amount of virus which will infect 50% of non-infected target cells. The virus+cells+drugs (naloxone or AZT) were incubated at 37 degrees Celsius in an atmosphere of 5% carbon dioxide for three days. Cells were lysed by using a detergent 1% Triton-X100. This preparation was frozen in liquid nitrogen and thawed at 37 degrees Celsius for three cycles. The preparation was vortexed vigorously for 20 seconds at the end of each cycle. Samples were then stored at −80 degrees Celsius until analysis. […]
# GADPH = experiment: RT-PCR control: expression of constitutive enzyme GADPH; format: cell-based, human; details: housekeeping gene control in RT-PCR
# Experimental: Total RNA from the preparations described above was used as a template for the generation of complementary DNA (cDNA). This was accomplished through the use of commercial RT-PCR kits (Gibco/BRL/Life Technologies, Inc., Rockville, Md.). The gene for the HIV gp41 transmembrane envelope glycoprotein was amplified from the RT products through the use of the following PCR cycling conditions: 94 degrees Celsius for 2 minutes followed by 52 degrees Celsius for 1 minutes then followed by 32 cycles at 94 degrees Celsius for 1 minutes, 52 degrees Celsius for 1 minutes, 72 degrees Celsius for […], then PCR extension was accomplished at 72 degrees Celsius for 10 minutes. The cycles were then ended by incubation at 4 degrees Celsius for 16 hours. […] (microliters) of PCR products were then loaded onto a 1.5% agarose gel containing 5 μg/ml of ethidium bromide. Bands in the gel with a size of 1.2 kb was considered to be gp41 based upon the primers used in the assay: Primer Sequences are as follows: Sense: 5 prime-[…]-3 prime (SEQ ID NO:1); Antisense 5 prime-[…]-3 prime (SEQ ID NO:2). In order to eliminate the possibility that the drug treatments could have an inhibitory effect on the RT used in the RT-PCR reaction rather than the HIV RT a constitutive (i.e. always expressed) enzyme called GADPH was used as a control. […]
# recombinant RT = target: T1, recombinant RT (Human immunodeficiency virus type 1 group M subtype B, UniProt P04585); experiment: Effect on recombinant RT; format: biochemical; details: different molar concentrations; protein not within the HIV viral lysate
# T1 construct: effect of different molar concentrations of naloxone on recombinant RT
# [2] = system: reverse transcriptase activity in HIV-MN infected Supt 1 cells; experiment: RT activity assay on lysates of HIV-MN infected, drug-treated Supt 1 cells; format: cell-based
# Experimental: 200TCID-50 per milliliter (tissue culture infectious dose) of HIV-MN cell free virus was used to infect 500,000/milliliter of a human T cell line (called SupTI) in the presence (at a range of concentrations) or absence (control) of naloxone-HC1/or AZT. The TCID-50 is an amount of virus which will infect 50% of non-infected target cells. The virus+cells+drugs (naloxone or AZT) were incubated at 37 degrees Celsius in an atmosphere of 5% carbon dioxide for three days. Cells were lysed by using a detergent 1% Triton-X100. This preparation was frozen in liquid nitrogen and thawed at 37 degrees Celsius for three cycles. The preparation was vortexed vigorously for 20 seconds at the end of each cycle. Samples were then stored at −80 degrees Celsius until analysis. Total RNA from the samples were prepared by using the Tri-reagent assay and aliquoted and stored at −80 degrees Celsius until RT-PCR (reverse transcriptase-polymerase chain reaction) analysis.
# A 96 well microplate was coated with 200 μl/well of a 40 mg/ml solution of polyA and incubated at room temperature overnight with rocking. […] The color reaction in the wells was measured spectrophotometrically. Color development was proportional to the amount of RT in the wells and quantitation was made based upon a standard curve of using recombinant RT. […]
# [3] = system: HIV gp41 transmembrane envelope glycoprotein RNA; experiment: RT-PCR of gp41 RNA from HIV infected target cells; format: cell-based, HIV-MN; details: different molar concentrations, hydrochloride
# Description: Total RNA from the preparations described above was used as a template for the generation of complementary DNA (cDNA). This was accomplished through the use of commercial RT-PCR kits (Gibco/BRL/Life Technologies, Inc., Rockville, Md.). […]
compound,measurement,setting,value
"C=CCN1CC[C@]23c4c5ccc(O)c4O[C@H]2C(=O)CC[C@@]3(O)[C@H]1C5 [naloxone, naloxone hydrochloride]",expression of gp120 protein (Western blot),[1]; HIV infected lymphocytes,significantly depress expression
same,"inhibition of HIV as measured by gp120 expression, compared with AZT","[1]; equivalent molar concentrations, cells lysed 3 days after infection","as effective, or more effective, than equivalent molar concentrations of AZT"
same,effect of drug treatment on expression of GADPH,GADPH,No effect
same,effect on recombinant RT,recombinant RT,direct inhibitory effect on RT
same,inhibition of RT activity in HIV infected cells compared with AZT,[2]; identical molar dose range of AZT,at least as effective as AZT
same,RT activity in HIV-MN infected Supt 1 cells,"[2]; treatment dose increasing from 10^-11 to 10^-4 M, 3 days, vs no drug control",RT activity decreases
same,expression of RNA for envelope glycoprotein gp41 (RT-PCR),[3],inhibiting expression of RNA for the envelope glycoprotein gp41
same,expression of RNA for envelope glycoprotein gp41 (RT-PCR),[3]; listed as Naloxone,significantly depress expression
